Experiments:
[1] = biological target: T1, recombinant galectin-1 (Cys at 2nd residue converted to Ser) (Cricetulus griseus, UniProt P48538, C3S); assay: Binding of biotinylated galectin-1 to activated neutrophils and desialylated HL-60 cells (flow cytometry); type: cell-based, hamster; conditions: 10 mM sugar; galectin-1 10 μg/ml; activated neutrophils, desialylated HL-60 cells
T1 construct: made in house; host or cells: E. coli
Description: Isolated neutrophils were activated by treatment with PMA and HL-60 cells were desialylated by treatment with neuraminidase. Heparinized blood was obtained from normal donors. Neutrophils were isolated by dextran sedimentation, hypotonic lysis, and density gradient centrifugation on HISTOPAQUE-1077 (Sigma), as described [G. A. Zimmerman, T. M. McIntyre, and S. M. Prescott, J. Clin. Invest., 76:2235, 1985]. Typically, the polymorphonuclear cells were >90% neutrophils by Wright-Giemsa staining and >90% CD16^+ as assessed by flow cytometry. Neutrophils were activated by treatment with phorbol myristate acetate (PMA) (Sigma) (0.5 μM) for 20 minutes at 37° C. in RPMI containing 20% FCS (0.5 ml). HL-60 cells were routinely maintained in RPMI containing 20% FCS. Desialylated HL-60 cells were prepared by treating 3×10^7 cells with Arthrobacter ureafaciens neuraminidase (Sigma) (100 mU) in 500 μl of RPMI containing 20% FCS for 1 hour at 37° C. […] The washed cells were incubated with FITC-streptavidin (1:100 dilution) (Sigma), washed once with PBS, and analyzed by flow cytometry. […] "Unstained" indicates fluorescence of either resting neutrophils or HL-60 cells incubated in the absence of either MAL or galectin-1. "Control" indicates fluorescence of either activated neutrophils or desialylated HL-60 cells incubated with galectin-1 in the presence of 10 mM lactose.

[2] = biological target: T1, recombinant galectin-1 (Cys at 2nd residue converted to Ser); assay: Galectin-1-induced apoptosis of activated neutrophils and desialylated HL-60 cells (annexin V staining); type: cell-based, hamster; conditions: galectin-1 10 μM; lactose 10 mM
Protocol: Resting or activated neutrophils (3×10^6 cells) were treated with galectin-1 (10 μM) in 0.5 ml of HBSS (lacking Ca^2+ /Mg^2+ and containing 0.5% human albumin) for 90 minutes at 37° C. in the presence or absence of 10 mM lactose. HL-60 cells and desialylated HL-60 cells (3×10^6 cells/0.5 ml) were treated with galectin-1 (10 μM) for 20 hours at 37° C. in the presence or absence of 10 mM lactose. At the end of the incubations all cells were treated with 10 mM lactose in PBS to disaggregate the cells. […]
Annexin V is a protein that recognizes phosphatidyl serine (PS) and is a convenient marker for apoptosis of neutrophils and other cells (S. J. Martin, C. P. Reutelingsperger, A. J. McGahon, J. A. Rader, R. C. van Schie, D. M. LaFace and D. R. Green DR, J. Exp. Med., 182:1545, 1995; C. H. Homburg, M. de Haas, A. E. von dem Borne, A. J. Verhoeven, C. P. Reutelingsperger and D. Roos, Blood, 85:532, 1995; I. Vermes, C. Haanen, H. Steffens-Nakken, and C. Reutelingsperger, J. Immunol. Methods, 184:39, 1995; Z. Darzynkiewicz, G. Juan, X. Li, W. Gorczyca, T. Murakami, and F. Traganos, Cytometry 27:1, 1997). […] Within 90 minutes following treatment with 10 μM galectin-1, 36% of the activated neutrophils undergo apoptosis, as determined by their staining with annexin V (FIG. 2A). […]

[3] = biological target: T1, recombinant galectin-1 (Cys at 2nd residue converted to Ser); assay: Cell agglutination by galectin-1; type: cell-based, hamster
Protocol: In all cases cell binding of galectin-1 to cells was inhibited by 10 mM lactose, a known inhibitor of galectin-1 (FIG. 1), but not by 10 mM maltose, an isomeric, non-inhibitory analog (data not shown). We noted that both activated neutrophils and desialylated HL-60 cells are strongly agglutinated by galectin-1, whereas resting neutrophils and HL-60 cells are not appreciably agglutinated, which further underscores the profound differences in surface phenotypes between resting and activated neutrophils.

[4] = biological target: T2, hamster galectin-1 mutant C2S-Gal-1 (Cys-2 to Ser), SEQ ID NO:2 (Cricetulus griseus, UniProt P48538, C3S); assay: Equilibrium dialysis binding of N-acetyllactosamine; conditions: stated only as similar affinity to the monomeric mutants
T2 construct: made in house; host or cells: E. coli
T2 sequence (P48538 whole entry C3S): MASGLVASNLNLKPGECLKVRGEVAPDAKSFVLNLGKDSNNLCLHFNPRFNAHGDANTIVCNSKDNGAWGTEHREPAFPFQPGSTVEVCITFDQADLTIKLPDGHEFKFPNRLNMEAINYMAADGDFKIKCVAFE
Description: (§1) Specific mutations were created in the six N-terminal amino acids (SEQ ID NO:1) of hamster galectin-1, as indicated in FIG. 3 and as described in further detail in Cho and Cummings, Biochemistry, 35:13081, 1996, which is hereby incorporated by reference herein in its entirety. C2S-Gal-1 (SEQ ID NO:2) contains a single replacement of Cys-2 to Ser. V5D-Gal-1 (SEQ ID NO:3) contains a single mutation of Val-5 to Asp. N-Gal-1 (SEQ ID NO:4) contains disruptions of three hydrophobic amino acids at the N-terminus. We also made another mutant construct, termed N/C-Gal-1, which contained the amino terminal changes of N-Gal-1 in addition to multiple changes in specific hydrophobic amino acids at the C-terminus (data not shown). All mutants, except for C2S-Gal-1, behaved as monomers in size exclusion HPLC and native gel electrophoresis. C2S-Gal-1 was indistinguishable from the native lectin in its ability to undergo monomer-dimer equilibrium and in its carbohydrate-binding affinity. […] However, in equilibrium dialysis N-Gal-1 and V5D-Gal-1 bound N-acetyllactosamine with similar affinity (Kd ≈90 μM) to that of the C2S-Gal-1 and the native lectin. […] N/C-Gal-1 was non-functional.

[5] = biological target: T3, hamster galectin-1 mutant N-Gal-1 (monomeric; three hydrophobic N-terminal amino acids disrupted), SEQ ID NO:4 (Cricetulus griseus, UniProt P48538, A7S/C3S/L5Q/V6D); assay: as above
T3 construct: made in house; host or cells: E. coli
T3 sequence (P48538 2-135 C3S/L5Q/V6D/A7S limits assumed): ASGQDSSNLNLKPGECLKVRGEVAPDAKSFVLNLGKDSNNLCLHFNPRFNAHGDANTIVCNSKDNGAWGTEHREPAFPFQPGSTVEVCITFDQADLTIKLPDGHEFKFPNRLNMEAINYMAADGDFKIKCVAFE
Description: as §1

[6] = biological target: T4, hamster galectin-1 mutant V5D-Gal-1 (Val-5 to Asp), SEQ ID NO:3 (Cricetulus griseus, UniProt P48538, V6D); assay: as above
T4 construct: made in house; host or cells: E. coli
T4 sequence (P48538 whole entry V6D): as the sequence (P48538 whole entry C3S) above, with S3C, V6D counted along it
Description: as §1

[7] = biological target: hamster galectin-1, native lectin (N-terminus SEQ ID NO:1) (Cricetulus griseus, UniProt P48538); assay: as above; conditions: stated only as similar affinity to the monomeric mutants
hamster galectin-1, native lectin (N-terminus SEQ ID NO:1), sequence (P48538 2-135): as the sequence (P48538 2-135 C3S/L5Q/V6D/A7S limits assumed) above, with S2C, Q4L, D5V, S6A counted along it
Description: as §1

T1 sequence (P48538 whole entry C3S): as the sequence (P48538 whole entry C3S) above

Row | Compound | Inhibition of cell binding of galectin-1 [1] | Inhibition of apoptosis-inducing activity of galectin-1 [2] | Inhibition of cell agglutinating activity of galectin-1 [3] | Kd [4] [µM] | Kd [5] [µM] | Kd [6] [µM] | Kd [7] [µM]
1 | OC[C@H]1O[C@@H](O[C@H]2[C@H](O)[C@@H](O)C(O)O[C@@H]2CO)[C@H](O)[C@@H](O)[C@H]1O (some centres unmarked) [lactose] | inhibited | inhibited | inhibited | – | – | – | –
2 | OC[C@H]1O[C@H](O[C@H]2[C@H](O)[C@@H](O)[C@H](O)O[C@@H]2CO)[C@H](O)[C@@H](O)[C@@H]1O [maltose] | non-inhibitory | – | – | – | – | – | –
3 | CC(=O)N[C@H]1C(O)O[C@H](CO)[C@@H](O[C@@H]2O[C@H](CO)[C@H](O)[C@H](O)[C@H]2O)[C@@H]1O (some centres unmarked) [N-acetyllactosamine] | – | – | – | ~90 | ~90 | ~90 | ~90

Reference: patent publication US5948628A, “Methods of screening for compounds which mimic galectin-1” (The Board of Regents of The University of Oklahoma, priority 1997, dated 1999)
